Measurements from US20240344026A1, “Methods to Activate Gamma Delta T cells for Antibody Dependent Cellular Cytotoxicity” (Intellistem, Inc., priority 2023, published 2024).

Legend:
Format in all cases: cell-based
[1] = system: Gamma Delta T cells; assay: Proliferation rate of Gamma Delta T cells on ex vivo stimulation of MNC; conditions: changed stimulant vs standard protocol; zoledronate pulse 100 μM 4 h (day 7); IL-15 10 ng/ml, IL-2 1000 U/ml
Description: Cell cultures were performed with peripheral blood obtained from healthy adult donors. Peripheral blood mononuclear cells (MNC) were isolated by density gradient centrifugation with Biocoll (Biochrom, Darmstand, Germany/Bio&SELL, Feucht, Germany). MNC were incubated up to 17 days at 37° C. and 5% CO2.
For cultivation, MNC at a concentration of 5.0E+05/ml were cultured in 50 ml cell culture flasks (Sarstedt, Nuembrecht, Germany) using medium consisting of OpTmizer™ CTSTM T-Cell Expansion Basal Medium, OpTmizer™ CTSTM T-Cell Expansion Supplement (Gibco/Thermo Fisher, Waltham, USA) and 1% 200 mM L-Glutamin. 10 μM Zoledronate were added on day 0 and 1000 U/ml IL-2 were added on day 2. On days 4, 7, 9, 11 and 14 half of the medium was removed and replaced by fresh medium containing 2× 1000 U/ml IL-2 for a final concentration of 1000 U/ml. Cells were not split at any time. From day 4 on cell culture flasks were shaken at 250 rpm. For pulsing zoledronate, 100 μM Zol were added on day 0. […]
Cell counts and cell viability were established using a hemocytometer and the trypan blue exclusion method. Cell count and proliferation rate of Gamma Delta T cells was calculated on the basis of the cell number of the MNC and the percentage of Gamma Delta T cells on the MNC determined by flow cytometry. […]

[2] = system: tumor cell line Daudi; assay: Cytotoxicity assay
From the text: To directly determine the anti-tumor activity of Gamma Delta T cells against the tumor cell line Daudi, the present inventors performed a cytotoxicity assay on day 10 of cultivation comparing the prior art (R10F) and preferred embodiment of the present invention (Ko-Op). For this, Alpha Beta T cells and NKp46+ cells were paramagnetically depleted from the cell suspension in order to isolate the Gamma Delta T cells on day 10. The cell composition before and after depletion is shown FIG. 2A.
The present inventors next performed the cytotoxicity assay with the different cultivated MNC. To be able to compare the methods more clearly, the present inventors calculated the lytic units per 10^6 effector cells.

[3] = system: Gamma Delta T cells; assay: Differentiation of Gamma Delta T cells by CD45RA and CD27 expression
From the text: The present inventors divided the T cells into naive, central memory, effector memory and terminally differentiated Gamma Delta T cells based on expression of CD45RA and CD27.

[4] = system: cytoplasmic perforin of Gamma Delta T cells; assay: Cytoplasmic perforin staining, flow cytometry
Description: To evaluate the activity of stimulated Gamma Delta T cells, cytoplasmic perforin and IFN γ were stained every three to four days and Δ MFI was measured by flow cytometry.

[5] = changed stimulant vs standard protocol
[6] = changed stimulant vs standard protocol, without combination of modifications
[7] = IL-15 instead of IL-2, combined with pulsing zoledronate

O=P(O)(O)C(O)(Cn1ccnc1)P(=O)(O)O [zoledronate, reference compound]
proliferation rate of Gamma Delta T cells [1]: significant lower proliferation rate | lytic units per 10^6 effector cells ([2]; without therapeutic antibodies, vs standard protocol): significant increase | percentage of central memory Gamma Delta T cells (TCM) [3, 5]: more TCM | cytoplasmic perforin [4, 6]: did not lead to any significant change

IL-15: interleukin used at 10 ng/ml in place of IL-2
proliferation rate of Gamma Delta T cells [1]: significantly lower | lytic units per 10^6 effector cells ([2]; with zoledronate pulse, without antibody, vs zoledronate pulse without modification of the interleukins): an increase | percentage of effector Gamma Delta T cells (TEM) ([3]; IL-15 instead of IL-2): reduced percentage | percentage of central memory Gamma Delta T cells (TCM) [3, 7]: elevated percentage | percentage of effector Gamma Delta T cells (TEM) [3, 7]: reduced percentage | percentage of central memory Gamma Delta T cells (TCM) [3, 5]: elevated percentage | cytoplasmic perforin ([4]; IL-15 instead of IL-2, with zoledronate pulse): significant reduction | cytoplasmic perforin [4, 6]: significant reduction
